# Results taken from the NIST ThermoML archive (doi:10.1016/j.jct.2012.01.019).
# Numbers after ± are expanded uncertainties.
# Test: activity coefficient (dimensionless); of the first substance listed, at infinite dilution; xn = mol fraction of the nth substance listed
# Conditions: 101 kPa, Liquid, Chromatography, x1 = 0
smiles,measurement,setting,value
"Cc1ccccc1C [1,2-dimethylbenzene] + COCC[N+]1(C)CCCCC1.O=S(=O)([N-]S(=O)(=O)C(F)(F)F)C(F)(F)F",activity coefficient,318.15 K,1.66 ± 0.11
same,activity coefficient,328.15 K,1.68 ± 0.11
same,activity coefficient,338.15 K,1.69 ± 0.11
same,activity coefficient,348.15 K,1.71 ± 0.11
same,activity coefficient,358.15 K,1.72 ± 0.12
same,activity coefficient,368.15 K,1.73 ± 0.12
C1CCOC1 [tetrahydrofuran] + COCC[N+]1(C)CCCCC1.O=S(=O)([N-]S(=O)(=O)C(F)(F)F)C(F)(F)F,activity coefficient,318.15 K,0.76 ± 0.05
same,activity coefficient,328.15 K,0.773 ± 0.051
same,activity coefficient,338.15 K,0.787 ± 0.051
same,activity coefficient,348.15 K,0.799 ± 0.052
same,activity coefficient,358.15 K,0.809 ± 0.052
same,activity coefficient,368.15 K,0.821 ± 0.053
CCCC(=O)OC [methyl butanoate] + COCC[N+]1(C)CCCCC1.O=S(=O)([N-]S(=O)(=O)C(F)(F)F)C(F)(F)F,activity coefficient,318.15 K,1.22 ± 0.08
same,activity coefficient,328.15 K,1.23 ± 0.08
same,activity coefficient,338.15 K,1.24 ± 0.08
same,activity coefficient,348.15 K,1.25 ± 0.08
same,activity coefficient,358.15 K,1.26 ± 0.08
same,activity coefficient,368.15 K,1.27 ± 0.08
CCO [ethanol] + COCC[N+]1(C)CCCCC1.O=S(=O)([N-]S(=O)(=O)C(F)(F)F)C(F)(F)F,activity coefficient,318.15 K,1.73 ± 0.12
same,activity coefficient,328.15 K,1.58 ± 0.1
same,activity coefficient,338.15 K,1.45 ± 0.1
same,activity coefficient,348.15 K,1.33 ± 0.09
same,activity coefficient,358.15 K,1.24 ± 0.08
same,activity coefficient,368.15 K,1.16 ± 0.07
CCCC(C)=O [pentan-2-one] + COCC[N+]1(C)CCCCC1.O=S(=O)([N-]S(=O)(=O)C(F)(F)F)C(F)(F)F,activity coefficient,318.15 K,0.786 ± 0.051
same,activity coefficient,328.15 K,0.801 ± 0.052
same,activity coefficient,338.15 K,0.813 ± 0.053
same,activity coefficient,348.15 K,0.825 ± 0.053
same,activity coefficient,358.15 K,0.837 ± 0.054
same,activity coefficient,368.15 K,0.849 ± 0.054
CCC(C)(C)OC [2-methoxy-2-methylbutane] + COCC[N+]1(C)CCCCC1.O=S(=O)([N-]S(=O)(=O)C(F)(F)F)C(F)(F)F,activity coefficient,318.15 K,3.74 ± 0.25
same,activity coefficient,328.15 K,3.74 ± 0.25
same,activity coefficient,338.15 K,3.73 ± 0.25
same,activity coefficient,348.15 K,3.73 ± 0.25
same,activity coefficient,358.15 K,3.73 ± 0.25
same,activity coefficient,368.15 K,3.72 ± 0.25
"CCC(C)(C)C [2,2-dimethylbutane] + COCC[N+]1(C)CCCCC1.O=S(=O)([N-]S(=O)(=O)C(F)(F)F)C(F)(F)F",activity coefficient,318.15 K,13.5 ± 0.6
same,activity coefficient,328.15 K,12.9 ± 0.6
same,activity coefficient,338.15 K,12.4 ± 0.6
same,activity coefficient,348.15 K,11.8 ± 0.5
same,activity coefficient,358.15 K,11.3 ± 0.5
same,activity coefficient,368.15 K,10.9 ± 0.5
CCOC(C)=O [ethyl acetate] + COCC[N+]1(C)CCCCC1.O=S(=O)([N-]S(=O)(=O)C(F)(F)F)C(F)(F)F,activity coefficient,318.15 K,0.916 ± 0.058
same,activity coefficient,328.15 K,0.932 ± 0.059
same,activity coefficient,338.15 K,0.948 ± 0.06
same,activity coefficient,348.15 K,0.963 ± 0.061
same,activity coefficient,358.15 K,0.975 ± 0.061
same,activity coefficient,368.15 K,0.989 ± 0.062
C#CCCCCC [1-heptyne] + COCC[N+]1(C)CCCCC1.O=S(=O)([N-]S(=O)(=O)C(F)(F)F)C(F)(F)F,activity coefficient,318.15 K,4.22 ± 0.29
same,activity coefficient,328.15 K,4.21 ± 0.29
same,activity coefficient,338.15 K,4.19 ± 0.29
same,activity coefficient,348.15 K,4.17 ± 0.28
same,activity coefficient,358.15 K,4.15 ± 0.28
same,activity coefficient,368.15 K,4.15 ± 0.28
c1ccccc1 [benzene] + COCC[N+]1(C)CCCCC1.O=S(=O)([N-]S(=O)(=O)C(F)(F)F)C(F)(F)F,activity coefficient,318.15 K,0.912 ± 0.058
same,activity coefficient,328.15 K,0.922 ± 0.058
same,activity coefficient,338.15 K,0.934 ± 0.059
same,activity coefficient,348.15 K,0.943 ± 0.059
same,activity coefficient,358.15 K,0.951 ± 0.06
same,activity coefficient,368.15 K,0.961 ± 0.06
CC(C)OC(C)C [diisopropyl ether] + COCC[N+]1(C)CCCCC1.O=S(=O)([N-]S(=O)(=O)C(F)(F)F)C(F)(F)F,activity coefficient,318.15 K,6.13 ± 0.42
same,activity coefficient,328.15 K,6.03 ± 0.41
same,activity coefficient,338.15 K,5.94 ± 0.4
same,activity coefficient,348.15 K,5.84 ± 0.4
same,activity coefficient,358.15 K,5.76 ± 0.39
same,activity coefficient,368.15 K,5.69 ± 0.39
CCc1ccccc1 [ethylbenzene] + COCC[N+]1(C)CCCCC1.O=S(=O)([N-]S(=O)(=O)C(F)(F)F)C(F)(F)F,activity coefficient,318.15 K,1.92 ± 0.13
same,activity coefficient,328.15 K,1.93 ± 0.13
same,activity coefficient,338.15 K,1.93 ± 0.13
same,activity coefficient,348.15 K,1.94 ± 0.13
same,activity coefficient,358.15 K,1.94 ± 0.13
same,activity coefficient,368.15 K,1.95 ± 0.13
C=Cc1ccccc1 [styrene] + COCC[N+]1(C)CCCCC1.O=S(=O)([N-]S(=O)(=O)C(F)(F)F)C(F)(F)F,activity coefficient,318.15 K,1.08 ± 0.07
same,activity coefficient,328.15 K,1.1 ± 0.07
same,activity coefficient,338.15 K,1.13 ± 0.07
same,activity coefficient,348.15 K,1.14 ± 0.07
same,activity coefficient,358.15 K,1.16 ± 0.07
same,activity coefficient,368.15 K,1.19 ± 0.08
COC(C)(C)C [2-methoxy-2-methylpropane] + COCC[N+]1(C)CCCCC1.O=S(=O)([N-]S(=O)(=O)C(F)(F)F)C(F)(F)F,activity coefficient,318.15 K,2.56 ± 0.17
same,activity coefficient,328.15 K,2.59 ± 0.18
same,activity coefficient,338.15 K,2.63 ± 0.18
same,activity coefficient,348.15 K,2.66 ± 0.18
same,activity coefficient,358.15 K,2.69 ± 0.18
same,activity coefficient,368.15 K,2.73 ± 0.19
"Cc1cccc(C)c1 [1,3-dimethylbenzene] + COCC[N+]1(C)CCCCC1.O=S(=O)([N-]S(=O)(=O)C(F)(F)F)C(F)(F)F",activity coefficient,318.15 K,1.8 ± 0.12
same,activity coefficient,328.15 K,1.81 ± 0.12
same,activity coefficient,338.15 K,1.82 ± 0.12
same,activity coefficient,348.15 K,1.83 ± 0.12
same,activity coefficient,358.15 K,1.85 ± 0.12
same,activity coefficient,368.15 K,1.86 ± 0.13
CCC(C)O (stereo unspecified) [butan-2-ol] + COCC[N+]1(C)CCCCC1.O=S(=O)([N-]S(=O)(=O)C(F)(F)F)C(F)(F)F,activity coefficient,318.15 K,2.26 ± 0.15
same,activity coefficient,328.15 K,2.07 ± 0.14
same,activity coefficient,338.15 K,1.89 ± 0.13
same,activity coefficient,348.15 K,1.74 ± 0.12
same,activity coefficient,358.15 K,1.62 ± 0.11
same,activity coefficient,368.15 K,1.52 ± 0.1
